Test results published in patent US11702404B2, “GLP-1R modulating compounds” (priority 2019, dated 2023).
Where two headings read alike, the source gives them in different places.

What was measured:
[1] = target: GLP-1R (Homo sapiens, UniProt P43220); test: GLP-1R activation: cAMP increase in CHO cells stably expressing GLP-1R; type: cell-based; details: read-out: EC50
[2] = Microsomal stability, human liver microsomes (predicted hepatic clearance); details: predicted from in vitro microsomal stability data
[3] = cAMP increase, CHO cells stably expressing GLP-1R, 10 point dose response, 30 minutes incubation

Sequence of GLP-1R (P43220 24-463): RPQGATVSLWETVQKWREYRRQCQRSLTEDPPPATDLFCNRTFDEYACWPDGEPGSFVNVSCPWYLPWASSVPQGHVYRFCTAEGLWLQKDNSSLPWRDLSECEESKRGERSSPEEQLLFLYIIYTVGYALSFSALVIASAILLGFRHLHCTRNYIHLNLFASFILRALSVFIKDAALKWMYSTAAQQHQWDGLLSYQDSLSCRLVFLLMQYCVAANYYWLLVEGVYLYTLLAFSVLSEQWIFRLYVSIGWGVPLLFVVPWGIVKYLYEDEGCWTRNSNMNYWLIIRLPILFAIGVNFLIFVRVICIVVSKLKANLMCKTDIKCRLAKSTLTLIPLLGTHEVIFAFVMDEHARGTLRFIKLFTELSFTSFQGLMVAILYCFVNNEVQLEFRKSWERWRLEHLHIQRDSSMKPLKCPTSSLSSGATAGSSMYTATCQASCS

Row | SMILES | EC50 [1, 3] | Predicted Hepatic Clearance (Pred. Cl.) [2] | EC50 [1]
1 | COCCn1c(Cc2ccc(-c3ccnc(OCc4ccc(C#N)cc4F)n3)c(F)c2)nc2c(F)cc(C(=O)O)cc21 [Example 558, 2-(4-(2-((4-cyano-2-fluorobenzyl)oxy)pyrimidin-4-yl)-3-fluorobenzyl)-4-fluoro-1-(2-methoxyethyl)-1H-benzo[d]imidazole-6-carboxylic acid] | 22.4 nM | 4 mL/min/kg | –
2 | COC[C@H](C)n1c(Cc2cc(F)c(-c3cccc(OCc4ccc(C#N)cc4F)n3)cc2F)nc2ccc(C(=O)O)cc21 [Example 559, (S)-2-(4-(6-((4-cyano-2-fluorobenzyl)oxy)pyridin-2-yl)-2,5-difluorobenzyl)-1-(1-methoxypropan-2-yl)-1H-benzo[d]imidazole-6-carboxylic acid] | 2.62 nM | 6.83 mL/min/kg | –
3 | COC[C@@H](C)n1c(Cc2cc(F)c(-c3cccc(OCc4ccc(C#N)cc4F)n3)cc2F)nc2ccc(C(=O)O)cc21 [Example 560, (R)-2-(4-(6-((4-cyano-2-fluorobenzyl)oxy)pyridin-2-yl)-2,5-difluorobenzyl)-1-(1-methoxypropan-2-yl)-1H-benzo[d]imidazole-6-carboxylic acid] | 1.92 nM | 5.83 mL/min/kg | –
4 | N#Cc1ccc(COc2cccc(-c3cc(F)c(Cc4nc5ccc(C(=O)O)cc5n4CCN4CCOCC4)cc3F)n2)c(F)c1 [Example 561, 2-(4-(6-((4-cyano-2-fluorobenzyl)oxy)pyridin-2-yl)-2,5-difluorobenzyl)-1-(2-morpholinoethyl)-1H-benzo[d]imidazole-6-carboxylic acid] | – | 9.5 mL/min/kg | 24.1 nM
5 | COCCn1c(Cc2cc(F)c(-c3cccc(OCc4ccc(Cl)cc4F)n3)cc2F)nc2ccc(C(=O)O)cc21 [Example 563, 2-(4-(6-((4-chloro-2-fluorobenzyl)oxy)pyridin-2-yl)-2,5-difluorobenzyl)-1-(2-methoxyethyl)-1H-benzo[d]imidazole-6-carboxylic acid] | 1 nM | 3.67 mL/min/kg | –
6 | COCCn1c(Cc2cc(F)c(-c3cccc(OCc4cc(F)c(Cl)cc4F)n3)cc2F)nc2ccc(C(=O)O)cc21 [Example 564, 2-(4-(6-((4-chloro-2,5-difluorobenzyl)oxy)pyridin-2-yl)-2,5-difluorobenzyl)-1-(2-methoxyethyl)-1H-benzo[d]imidazole-6-carboxylic acid] | 1.96 nM | 3.42 mL/min/kg | –
7 | COCCn1c(Cc2cc(F)c(-c3cccc(OCc4cc(F)c(C#N)cc4F)n3)cc2F)nc2ccc(C(=O)O)cc21 [Example 565, 2-(4-(6-((4-cyano-2,5-difluorobenzyl)oxy)pyridin-2-yl)-2,5-difluorobenzyl)-1-(2-methoxyethyl)-1H-benzo[d]imidazole-6-carboxylic acid] | 4.91 nM | 6 mL/min/kg | –
8 | CO[C@H]1C[C@H](n2c(Cc3cc(F)c(-c4cccc(OCc5ccc(C#N)cc5F)n4)cc3F)nc3ccc(C(=O)O)cc32)C1 [Example 567, 2-(4-(6-((4-cyano-2-fluorobenzyl)oxy)pyridin-2-yl)-2,5-difluorobenzyl)-1-((1r,3r)-3-methoxycyclobutyl)-1H-benzo[d]imidazole-6-carboxylic acid] | 1130 nM | 7.67 mL/min/kg | –
9 | N#Cc1ccc(COc2cccc(-c3cc(F)c(Cc4nc5ccc(C(=O)O)cc5n4Cc4cnns4)cc3F)n2)c(F)c1 [Example 569, 1-((1,2,3-thiadiazol-5-yl)methyl)-2-(4-(6-((4-cyano-2-fluorobenzyl)oxy)pyridin-2-yl)-2,5-difluorobenzyl)-1H-benzo[d]imidazole-6-carboxylic acid] | 10.4 nM | 17 mL/min/kg | –
10 | N#Cc1ccc(COc2cccc(-c3cc(F)c(Cc4nc5ccc(C(=O)O)cc5n4CC45CC(CO4)C5)cc3F)n2)c(F)c1 [Example 574] | 0.63 nM | 1.92 mL/min/kg | –
11 | N#Cc1ccc(COc2cccc(-c3cc(F)c(Cc4nc5ccc(C(=O)O)cc5n4CC45CC(C#N)(CO4)C5)cc3F)n2)c(F)c1 [Example 575, 2-(4-(6-((4-cyano-2-fluorobenzyl)oxy)pyridin-2-yl)-2,5-difluorobenzyl)-1-((4-cyano-2-oxabicyclo[2.1.1]hexan-1-yl)methyl)-1H-benzo[d]imidazole-6-carboxylic acid] | 37.2 nM | 8.67 mL/min/kg | –
12 | N#Cc1ccc(COc2cccc(-c3cc(F)c(Cc4nc5ccc(C(=O)O)cc5n4Cc4nncs4)cc3F)n2)c(F)c1 [Example 576, 1-((1,3,4-thiadiazol-2-yl)methyl)-2-(4-(6-((4-cyano-2-fluorobenzyl)oxy)pyridin-2-yl)-2,5-difluorobenzyl)-1H-benzo[d]imidazole-6-carboxylic acid] | 0.86 nM | 8 mL/min/kg | –
13 | N#Cc1ccc(COc2cccc(-c3cc(F)c(Cc4nc5ccc(C(=O)O)cc5n4CC4(n5ccnn5)CC4)cc3F)n2)c(F)c1 [Example 577, 1-((1-(1H-1,2,3-triazol-1-yl)cyclopropyl)methyl)-2-(4-(6-((4-cyano-2-fluorobenzyl)oxy)pyridin-2-yl)-2,5-difluorobenzyl)-1H-benzo[d]imidazole-6-carboxylic acid] | 0.4 nM | 7.5 mL/min/kg | –
14 | Cn1ncnc1Cn1c(Cc2cc(F)c(-c3cccc(OCc4ccc(C#N)cc4F)n3)cc2F)nc2ccc(C(=O)O)cc21 [Example 578, 2-(4-(6-((4-cyano-2-fluorobenzyl)oxy)pyridin-2-yl)-2,5-difluorobenzyl)-1-((1-methyl-1H-1,2,4-triazol-5-yl)methyl)-1H-benzo[d]imidazole-6-carboxylic acid] | 13.8 nM | 4.67 mL/min/kg | –
15 | N#Cc1ccc(COc2cccc(-c3cc(F)c(Cc4nc5ccc(C(=O)O)cc5n4Cc4ccns4)cc3F)n2)c(F)c1 [Example 579, 2-(4-(6-((4-cyano-2-fluorobenzyl)oxy)pyridin-2-yl)-2,5-difluorobenzyl)-1-(isothiazol-5-ylmethyl)-1H-benzo[d]imidazole-6-carboxylic acid] | 0.35 nM | 16 mL/min/kg | –
16 | N#Cc1ccc(COc2cccc(-c3cc(F)c(Cc4nc5ccc(C(=O)O)cc5n4Cc4ccsn4)cc3F)n2)c(F)c1 [Example 580, 2-(4-(6-((4-cyano-2-fluorobenzyl)oxy)pyridin-2-yl)-2,5-difluorobenzyl)-1-(isothiazol-3-ylmethyl)-1H-benzo[d]imidazole-6-carboxylic acid] | 1.94 nM | 5.83 mL/min/kg | –
17 | CC1(Cn2c(Cc3cc(F)c(-c4cccc(OCc5ccc(C#N)cc5F)n4)cc3F)nc3ccc(C(=O)O)cc32)COC1 [Example 581, 2-(4-(6-((4-cyano-2-fluorobenzyl)oxy)pyridin-2-yl)-2,5-difluorobenzyl)-1-((3-methyloxetan-3-yl)methyl)-1H-benzo[d]imidazole-6-carboxylic acid] | 0.4 nM | 6.33 mL/min/kg | –
18 | N#Cc1ccc(COc2cccc(-c3cc(F)c(Cc4nc5ccc(C(=O)O)nc5n4CCOC(F)F)cc3F)n2)c(F)c1 [Example 583, 2-(4-(6-((4-cyano-2-fluorobenzyl)oxy)pyridin-2-yl)-2,5-difluorobenzyl)-3-(2-(difluoromethoxy)ethyl)-3H-imidazo[4,5-b]pyridine-5-carboxylic acid] | 2.39 nM | 10.3 mL/min/kg | –
